The test system of data set [1] is arachidonic acid-induced edema in mice. The experiment in a line: Arachidonic acid-induced mouse ear inflammation (ear swelling). The note with it: for antiinflammatory activity: p.o.; for inhibition at 50 mg/kg: Mus musculus, po, 1 h, 50 mg/kg p.o., ear thickness one hour after 2 mg arachidonic acid. The class given is in vivo, male Balb/c mice. Here is the method: In the tests used to determine activity as 5-lipoxygenase pathway inhibitors, male Balb/c mice (20-28 g), were used. All mice were obtained from Charles River Breeding Laboratories, Kingston, N.Y. Within a single experiment, mice were age matched.
Reagents were employed as follows: Compounds of Formula (I) were each used as the free base. The compounds were homogenized in 0.5% tragacanth. Compounds were administered by […] at the indicated dose in a final volume of 10 ml/kg.
Arachidonic acid in acetone (2 mg/20 »l) was applied to the inner surface of the left ear. The thickness of both ears was then measured with a dial micrometer one hour after treatment, and the data were expressed as the change in thickness (10⁻³ cm) between treated and untreated ears.
Test compounds were given orally in acid/saline at the times indicated in the text prior to the topical application of arachidonic acid.
Dermatol., 82, 367-371 (1984)].

The next data set concerns the target T1, 5-Lipoxygenase (Rattus norvegicus, UniProt P12527).
T1 construct: the supernatant was centrifuged at 100,000 x g for 60 min; host or cells: RBL-1 cells (soluble cell extract, high-speed supernatant)
T1 sequence (P12527 1-673): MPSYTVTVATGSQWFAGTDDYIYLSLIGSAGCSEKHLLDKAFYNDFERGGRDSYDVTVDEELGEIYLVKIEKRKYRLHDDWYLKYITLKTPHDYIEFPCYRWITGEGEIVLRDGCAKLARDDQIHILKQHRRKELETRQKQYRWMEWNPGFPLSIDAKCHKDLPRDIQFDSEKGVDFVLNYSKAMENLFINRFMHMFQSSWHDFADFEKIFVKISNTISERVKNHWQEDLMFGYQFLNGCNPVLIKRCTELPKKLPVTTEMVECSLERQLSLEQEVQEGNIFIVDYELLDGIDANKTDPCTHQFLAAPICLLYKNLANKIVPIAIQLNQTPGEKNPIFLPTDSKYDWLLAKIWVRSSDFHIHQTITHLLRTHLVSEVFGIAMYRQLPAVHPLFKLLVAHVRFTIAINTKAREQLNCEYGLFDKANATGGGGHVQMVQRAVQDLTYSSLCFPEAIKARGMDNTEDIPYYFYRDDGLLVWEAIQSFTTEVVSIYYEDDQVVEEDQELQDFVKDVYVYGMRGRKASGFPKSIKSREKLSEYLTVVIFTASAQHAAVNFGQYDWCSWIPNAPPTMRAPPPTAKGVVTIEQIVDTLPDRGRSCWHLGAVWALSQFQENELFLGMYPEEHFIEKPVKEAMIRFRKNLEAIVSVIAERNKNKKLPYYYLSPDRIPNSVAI
The experiment in a line: Assay of 5-lipoxygenase activity in RBL-1 high speed supernatant. It counts as biochemical. To be noted: read-out: 5-LO IC50. As for the experimental part: For in vitro experiments, compounds were dissolved at appropriate concentrations in ethanol (final concentration 1.0%) and then diluted to final concentrations using the buffers indicated in the text.
The activities of these enzymes in extracts of RBL-1 cells were assayed using the method of Jakschik and Lee, Nature, 287, 51-52 (1980). RBL-1 cells were obtained from the American Type Culture Collection (#CRL 1378) and were grown at 37°C (5% CO₂ in air) in spinner culture in MEM supplemented with 10% heat inactivated fetal calf serum. Harvested cells were washed with 50 mM sodium phosphate buffer, pH 7.0, containing 1 mM EDTA and 0.1% gelatin, resuspended in fresh buffer (5 x 10⁷ cells/ml) and disrupted by nitrogen cavitation using the Parr bomb at 750 psi for 10 min. The broken cell extract was then centrifuged at 10,000 x g for 20 minutes (min) and the supernatant was centrifuged at 100,000 x g for 60 min. Aliquots (0.25 mls) of the supernatant were preincubated with or without drugs for 10 min, after which 10 ul CaCl₂ (2 mM) was added and the reaction was initiated with 2.5 »l of 2.5 mM arachidonic acid-1-¹⁴C (final concentration was 25 »M; specific activity 20,000 dpm/nmole). After incubation for 5 minutes at 37°C, the reaction was terminated by addition of 2 volumes (0.5 ml) ice cold acetone and the sample was allowed to deproteinize on ice for 10 minutes prior to centrifugation at 1,000 x g for 10 minutes. The deproteinized supernatant was adjusted to pH 3.5 with 2N formic acid and extracted with 2 volumes of ice cold ethyl acetate. The extracted samples were dried under argon, redissolved in ethyl acetate and applied to Whatman LK5D thin layer chromatography (TLC) plates which were developed using the A-9 solvent system [organic phase of ethyl acetate: […]:acetic acid: water (110:50:20:10)] described by Hamberg and Samuelsson, J. Biol. Chem., 241, 257-263 (1966). Arachidonic acid, 5-HETE, LTB₄ and PGD₂ were quantified with a Berthold LB 2832 autoscanner.
Under these conditions, only the 5-lipoxygenase pathway metabolites were detectable. The 5-HETE and di-HETEs were formed at a linear rate, and […] amounts of the arachidonic acid-1-¹⁴C substrate were utilized.

The subject of data set [2] is arachidonic acid-induced edema in mice. The experiment in a line: Arachidonic acid-induced mouse ear inflammation (ear swelling). To be noted: 1 h, 50 mg/kg s.c. or i.p., ear thickness one hour after 2 mg arachidonic acid. It counts as in vivo, male Balb/c mice.
Data set [3] can be described thus: Cytochrome P-450 inhibition (ethoxycoumarin-O-deethylase activity, phenobarbital-induced microsomes). To be noted: rat.
Setting [4] is: LTB4 production by RBL-1 high speed supernatant.
Where [5] appears, read: total HETE and Di-HETE production by RBL-1 high speed supernatant.

SMILES strings stand for the structures. “Also recorded” adds a separate entry of the source. Like-named read-outs stand apart in the source and are kept apart here. Where only a bound is given, the exact number is not on record here.

With `CC(C)Cc1ccc(C(C)C(=O)O)cc1` (stereo not shown) [ibuprofen, reference compound], the antiinflammatory activity result in data set [1] (250 mg/kg) is reported as “do not exhibit detectable antiinflammatory activity”.

`Oc1ccc(-c2nc3n(c2-c2ccncc2)CCC3)cc1` [Compound 7]: in data set [1], at 50 mg/kg the inhibition was 27%. Moreover, the concentration for half-maximal inhibition (IC50) on 5-Lipoxygenase (setting [4]) stood at 17 µM.

Consider `Cc1cc(-c2c(-c3ccc([S+](C)[O-])cc3)nc3n2CCC3)ccn1` (stereo not shown) [Compound 21, 2-(4-Methylsulfinylphenyl)-3-[4-(2-methyl)pyridyl]-6,7-dihydro-[5H]-pyrrolo[1,2-]imidazole], for which the inhibition at 50 mg/kg amounted to 59% in data set [1] and 14% in data set [2].

Consider `CCOC(=O)CSc1ccc(-c2nc3n(c2-c2ccncc2)CCC3)cc1` [Compound 16, 2-(4-Carbethoxymethylthiophenyl)-3-(4-pyridyl)-6,7-dihydro-[5H]-pyrrolo[1,2-a]imidazole], for which the IC50 at 5-Lipoxygenase (setting [5]) is 50 µM. For the same compound, in data set [2], the inhibition at 50 mg/kg worked out at 15%.

On to `c1cc(-c2cn3c(n2)CCC3)ccn1` [Compound 17], for which the inhibition at 50 mg/kg in data set [1] was found to be 20%; in data set [2], 41%.

The compound `CC(C)Oc1ccc(-c2nc3n(c2-c2ccncc2)CCC3)cc1` [Compound 10] yielded an inhibition at 50 mg/kg in data set [1] of 43%. In addition, in data set [3] (microsomes), 2.5 µM corresponded to half-maximal inhibition (IC50).

With `CS(=O)(=O)c1ccc(-c2nc3n(c2-c2ccncc2)CCC3)cc1` [Compound 3, 2-(4-Methylsulfonylphenyl)-3-(4-pyridyl)-6.7-dihydro-[5H]-pyrrolo[1,2-a]imidazole], the IC50 (on 5-Lipoxygenase (setting [4]); in data set [3] (microsomes)) was more than 100 µM each time. 50 mg/kg produced 3% inhibition in data set [2].

As to `COc1ccc(-c2nc3n(c2-c2ccccn2)CCC3)cc1` [Compound 4], at 5-Lipoxygenase (setting [4]), the IC50 is more than 100 µM. The inhibition at 50 mg/kg in data set [2] worked out at 29%.

For the compound `CC(=O)Sc1ccc(-c2nc3n(c2-c2ccncc2)CCC3)cc1` [Compound 11, 2-(4-Acetylthiophenyl)-3-(4-pyridyl)-6,7-dihydro-[5H]-pyrrolo[1,2-a]imidazole], in data set [1], the inhibition at 50 mg/kg came to 46%. On 5-Lipoxygenase (setting [5]), the half-maximal inhibitory concentration (IC50) is 25 µM.

In the case of `COc1ccc2c(c1)c(CC(=O)O)c(C)n2C(=O)c1ccc(Cl)cc1` [indomethacin, reference compound], the antiinflammatory activity result in data set [1] (10 mg/kg) is recorded as “did not reduce inflammation; also recorded: do not exhibit detectable antiinflammatory activity”.

Turning to `CCSc1ccc(-c2nc3n(c2-c2ccncc2)CCC3)cc1` [Compound 14, 2-(4-Ethylthiophenyl)-3-(4-pyridyl)-6,7-dihydro-[5H]-pyrrolo[1,2-a]imidazole], in data set [1], at 50 mg/kg the inhibition was 56%. For the same compound, the results for the IC50 (at 5-Lipoxygenase (setting [5]); in data set [3] (liver microsomes)) were 30 µM and 28.1 µM, respectively.

In turn, `CCOc1ccc(-c2nc3n(c2-c2ccncc2)CCC3)cc1` [Compound 8] had an inhibition at 50 mg/kg in data set [1] of 62%. Also, the IC50 on 5-Lipoxygenase (setting [4]) came to 6 µM.

`CSc1ccc(-c2nc3n(c2-c2ccnc(C)c2)CCC3)cc1` [Compound 20, 2-(4-Methylthiophenyl)-3-[4-(2-methyl)pyridyl]-6,7-dihydro-[5H]-pyrrolo[1,2,a]imidazole]: the inhibition at 50 mg/kg in data set [1] and in data set [2] was 59% throughout.

The compound `COc1ccc(-c2nc3n(c2-c2cccnc2)CCC3)cc1` [Compound 5] gave an inhibition at 50 mg/kg in data set [2] of 34%. The IC50 in data set [3] (microsomes) was more than 100 µM.

The compound `COc1ccc(-c2nc3n(c2-c2ccnc(C)c2)CCC3)cc1` [Compound 23] displayed an IC50 in data set [3] (liver microsomes) of 56.6 µM.

Consider `C[S+]([O-])c1ccc(-c2c(-c3ccncc3)nc3n2CCC3)cc1` (stereo not shown) [Compound 19], for which the inhibition at 50 mg/kg in data set [1] was 52%; in data set [2], 56%.

With `CSc1ccc(-c2c(-c3ccncc3)nc3n2CCC3)cc1` [Compound 18], the inhibition at 50 mg/kg in data set [1] stood at 28%; in data set [2], 32%.

In data set [1], `CCCOc1ccc(-c2nc3n(c2-c2ccncc2)CCC3)cc1` [Compound 9] returned an inhibition at 50 mg/kg of 42%. In addition, the results for the concentration for half-maximal inhibition (IC50) on 5-Lipoxygenase (setting [4]) and at 5-Lipoxygenase (setting [5]) were 3.5 µM and 8 µM, respectively.

In turn, `CC[S+]([O-])c1ccc(-c2nc3n(c2-c2ccncc2)CCC3)cc1` (stereo not shown) [Compound 15, 2-(4-Ethylsulfinylphenyl)-3-(4-pyridyl)-6,7-dihydro-[5H]-pyrrolo[1,2-a]imidazole] displayed an inhibition at 50 mg/kg in data set [1] of 41%. The IC50 (on 5-Lipoxygenase (setting [5]); in data set [3] (liver microsomes)) was more than 100 µM in each case.

The compound `CC(=O)OCSc1ccc(-c2nc3n(c2-c2ccncc2)CCC3)cc1` [Compound 13, 2-(4-Acetoxymethylthiophenyl)-3-(4-pyridyl)-6,7-dihydro-[5H]-pyrrolo[1,2-a]imidazole] showed an inhibition at 50 mg/kg in data set [1] of 51%. Moreover, the IC50 on 5-Lipoxygenase (setting [5]) amounted to 47 µM.

Regarding `COc1ccc2cc([C@H](C)C(=O)O)ccc2c1` [naproxen, reference compound], in data set [1] (100 mg/kg), the antiinflammatory activity entry is given as “do not exhibit detectable antiinflammatory activity”.

As to `CC(C)(C)C(=O)Sc1ccc(-c2nc3n(c2-c2ccncc2)CCC3)cc1` [Compound 12, 2-(4-Trimethylacetylthiophenyl)-3-(4-pyridyl)-6,7-dihydro-[5H]-pyrrolo[1,2-a]imidazole], the inhibition at 50 mg/kg in data set [1] is 45%. Besides, the IC50 at 5-Lipoxygenase (setting [5]) came to 6 µM.

With `COc1ccc(-c2nc3n(c2-c2ccnc(C)c2)CCC3)cc1` [Compound 22, 2-(4-methoxyphenyl)-3-[4-(2-methyl)pyridyl]-6,7-dihydro-[5H]-pyrrolo[1,2-a]imidazole], the inhibition at 50 mg/kg came to 56% in data set [1] and 57% in data set [2].

The values above are taken from patent EP0306300B1, “Pyrrolo(1,2-a)imidazole and imidazo(1,2-a)pyridine derivatives and their use as 5-lipoxygenase pathway inhibitors” (SMITHKLINE BEECHAM CORPORATION, priority 1987, dated 1989).
